According to patent US7772216B2, “Protein kinase and phosphatase inhibitors and methods for designing them” (The Research Foundation of State University of New York, priority 2001, dated 2010):
Where “and” joins values, the source holds several entries; their conditions need not be identical. Equal entries are not always repeated. Where two headings read alike, the source gives them in different places. Starred links: 1 amine or outer side, 2 acyl side, 3 side chain; linkers in the order of their positions; H or OH if unused. Non-standard residues stand in square brackets, D forms with d. Residues, ends and D or L forms follow the SMILES beside them. X5 = O=C([C@H](CNS(=O)(=O)O)N[*:1])[*:2]; X6 = NS(=O)(=O)CC[C@H](N[*:1])C(=O)[*:2]; X4 = O=C([C@H](CCCB(O)O)N[*:1])[*:2]; X2 = O=C([C@@H](CB(O)O)N[*:1])[*:2]; X3 = O=C([C@H](CCB(O)O)N[*:1])[*:2]; X1 = O=C([C@H](CB(O)O)N[*:1])[*:2]

Key:
[1] = molecular target: EGFRTK (Homo sapiens, UniProt P00533); experiment: EGFRTK inhibition; type: biochemical; details: % inhibition at 10 micromolar compound
From the text: (§1) Blanks for a particular enzyme indicate that inhibition was not found.

[2] = molecular target: pp60^c-src (Homo sapiens, UniProt P12931); experiment: Cellular Mimetic Src assay (RR-SRC phosphorylation); details: for Ki: Table IV; for inhibition at 1000 µM: read-out: % Inhibition of 2 mM RR-src at Inhibitor Concentration (1 mM); for inhibition at 45 µM: inhibitor at 45 μM; for inhibition at 500 µM: read-out: % Inhibition of 2 mM RR-src at Inhibitor Concentration (500 μM)
[3] = molecular target: T1, PTP-1B (Homo sapiens, UniProt P18031); experiment: PTP-1B inhibition; type: biochemical; details: % inhibition at 10 micromolar compound
T1 sequence (P18031 1-435): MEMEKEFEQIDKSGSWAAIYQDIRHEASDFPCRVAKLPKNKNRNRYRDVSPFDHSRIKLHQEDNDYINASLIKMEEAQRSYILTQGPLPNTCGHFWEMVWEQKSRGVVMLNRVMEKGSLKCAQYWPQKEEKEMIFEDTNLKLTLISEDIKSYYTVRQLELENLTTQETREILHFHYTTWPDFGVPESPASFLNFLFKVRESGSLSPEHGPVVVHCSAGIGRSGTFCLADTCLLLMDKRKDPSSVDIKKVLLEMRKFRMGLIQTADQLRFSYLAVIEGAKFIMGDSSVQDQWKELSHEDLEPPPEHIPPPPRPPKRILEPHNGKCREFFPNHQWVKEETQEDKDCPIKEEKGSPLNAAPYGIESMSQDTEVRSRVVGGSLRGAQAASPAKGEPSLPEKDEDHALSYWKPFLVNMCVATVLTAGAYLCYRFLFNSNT
From the text: as §1

[4] = molecular target: T2, PKA (Homo sapiens, UniProt P17612); experiment: Literature Mimetic PKA assay; type: biochemical; details: for Ki: Literature Mimetic (L) conditions, pentapeptide PKA inhibitors; for IC50: Literature Mimetic; for inhibition at 1000 µM: 1000 μM inhibitor
From the text: (§2) The boronic acid inhibitors 21-24 have two Arg's in their sequence also and therefore will bind to the phosphocellulose paper in addition to Kemptamide (although not as consistently or completely due to one less positive charge). Consequently, when analyzed as inhibitors, the amount of phosphorylated Kemptamide produced was not only counted, but also the amount of phosphorylated inhibitor simultaneously produced (e.g. see 26 below). The net result is that distorted IC50 curves are obtained which show net “stimulation” at higher inhibitor concentrations in some cases. […] The underlying substrate behavior of these “inhibitors” makes an accurate measurement of their inhibition potency impossible with the current assay. However, it does appear from the data that homologating the boronic acid functionality out with only CH2 groups (homologations with boronic acid non-peptide Src inhibitors may also be carried out) decreases the binding affinity and ability to function as a substrate.

[5] = molecular target: T2, PKA; experiment: Cellular Mimetic PKA assay; type: biochemical; details: for % sti (stimulation) / inhibition at 2000 µM: 2000 μM inhibitor, C; for IC50: Cellular Mimetic
From the text: as §2
Phosphorylated Kemptamide is SEQ. ID. No. 6. Phosphorylated 22 is SEQ. ID. No. 4. […] The graphs show their respective rates and levels of phosphorylation with the typical loss of initial velocity kinetics with time (due to substrate depletion and end product inhibition), analogous to a standard L-Ser substrate such as Kemptamide. The comparison of 21 to 22 shown was done in the same assay run, at identical boronic acid substrate concentrations, and with identical Cellular Mimetic assay solutions so that the cpm's could be directly compared. […] That the boronic acid moiety would be phosphorylated by PKA was surprising, but it is even more surprising that the phosphonic-boronic acid mixed anhydride produced (e.g. 26) was stable enough to survive the pH 7.2/37° C. assay incubation and then be isolated by binding to phosphocellulose paper after acid quenching of the reaction with 10% TCA and washing the phosphocellulose paper with 25 mM phosphoric acid (3×). An STN substructure search was run on mixed anhydrides of phosphoric and boronic acids and found only three references to experiments and theoretical calculations for the analogous putative (but not proven) anhydride formed from boric acid and phosphoric acid as a solid surface impregnated catalyst for the partial oxidation of ethane to acetaldehyde at 823° K. (Zhanpeisov & Otsuka, 1992, Otsuka et al., 1992, Murakami et al., 1990). However, this highly unusual anhydride has never before been synthesized free of a solid surface, isolated, or characterized. Thus, this is a novel enzymatic reaction and chemical entity with interesting possibilities for protein kinase inhibitor designs.

[6] = read-out: % Inhibition of 2 mM RR-src at Inhibitor Concentration (100 μM)
[7] = read-out: % Inhibition at 100 μM (std. dev.)
[8] = 0 h preincubation, read-out: IC50 μM (cond. L, 0 h preincubation)
[9] = 0 h preincubation, * very distorted IC50 curve, read-out: IC50 μM (cond. C, 0 h preincubation)
[10] = IC50 μM (cond. L, 4 h preincubation), 4 h preincubation, * very distorted IC50 curve
[11] = IC50 μM (cond. C, 4 h preincubation), 4 h preincubation

pp60^c-src, sequence (P12931 whole entry): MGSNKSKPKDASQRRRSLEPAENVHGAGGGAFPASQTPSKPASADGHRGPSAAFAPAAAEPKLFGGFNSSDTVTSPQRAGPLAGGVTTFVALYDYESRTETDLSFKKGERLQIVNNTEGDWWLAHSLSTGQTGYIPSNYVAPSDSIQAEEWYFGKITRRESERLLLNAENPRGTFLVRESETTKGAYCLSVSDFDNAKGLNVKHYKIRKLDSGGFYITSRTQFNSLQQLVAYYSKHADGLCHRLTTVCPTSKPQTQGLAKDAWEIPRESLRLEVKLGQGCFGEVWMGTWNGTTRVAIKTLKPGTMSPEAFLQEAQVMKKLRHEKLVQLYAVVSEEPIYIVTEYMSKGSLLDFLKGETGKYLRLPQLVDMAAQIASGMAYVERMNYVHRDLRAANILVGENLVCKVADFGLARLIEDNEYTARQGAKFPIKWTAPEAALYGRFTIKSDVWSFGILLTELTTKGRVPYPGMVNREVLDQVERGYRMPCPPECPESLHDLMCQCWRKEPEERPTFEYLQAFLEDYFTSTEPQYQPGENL
EGFRTK, sequence (P00533 25-1210): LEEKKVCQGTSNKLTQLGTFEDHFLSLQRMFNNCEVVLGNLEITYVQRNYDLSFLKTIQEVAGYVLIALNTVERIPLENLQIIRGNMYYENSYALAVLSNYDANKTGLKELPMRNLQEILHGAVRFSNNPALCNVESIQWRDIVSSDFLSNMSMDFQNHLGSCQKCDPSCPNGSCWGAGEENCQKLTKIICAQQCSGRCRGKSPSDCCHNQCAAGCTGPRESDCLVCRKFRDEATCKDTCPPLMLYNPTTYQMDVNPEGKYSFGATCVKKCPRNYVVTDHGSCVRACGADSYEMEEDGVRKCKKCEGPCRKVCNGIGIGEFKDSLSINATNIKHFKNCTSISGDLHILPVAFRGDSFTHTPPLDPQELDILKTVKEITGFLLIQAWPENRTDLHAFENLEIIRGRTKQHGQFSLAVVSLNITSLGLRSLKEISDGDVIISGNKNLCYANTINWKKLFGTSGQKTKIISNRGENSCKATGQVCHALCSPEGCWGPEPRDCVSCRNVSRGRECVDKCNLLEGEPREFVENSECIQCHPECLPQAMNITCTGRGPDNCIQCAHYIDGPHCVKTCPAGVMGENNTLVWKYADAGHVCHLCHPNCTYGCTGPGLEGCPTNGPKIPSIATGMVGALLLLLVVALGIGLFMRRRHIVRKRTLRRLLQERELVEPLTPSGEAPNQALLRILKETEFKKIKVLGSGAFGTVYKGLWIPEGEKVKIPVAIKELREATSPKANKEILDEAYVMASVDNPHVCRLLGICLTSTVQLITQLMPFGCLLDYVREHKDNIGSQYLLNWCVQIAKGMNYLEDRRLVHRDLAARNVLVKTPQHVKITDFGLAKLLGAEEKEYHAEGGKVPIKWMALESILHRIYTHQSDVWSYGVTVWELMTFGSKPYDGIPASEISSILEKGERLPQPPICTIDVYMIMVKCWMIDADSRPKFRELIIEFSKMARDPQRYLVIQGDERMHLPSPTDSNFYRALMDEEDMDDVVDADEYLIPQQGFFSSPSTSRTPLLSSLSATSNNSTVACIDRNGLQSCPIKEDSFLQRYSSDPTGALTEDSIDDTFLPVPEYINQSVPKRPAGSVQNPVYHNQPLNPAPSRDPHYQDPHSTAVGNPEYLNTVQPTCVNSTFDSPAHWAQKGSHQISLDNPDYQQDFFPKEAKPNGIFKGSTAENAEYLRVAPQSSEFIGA

Compound: O=C(NCc1ccc(Br)cc1)c1cc2cc(F)ccc2[nH]1 [Compound 1kkkk]
- EGFRTK @ 10 μm [1]: 30%

Compound: O=C(NCc1ccc(O)c(O)c1)c1cc2cc(F)ccc2[nH]1 [Compound 1gggg]
- EGFRTK @ 10 μm [1]: 25%

Compound: O=C(NCCCCCCO)c1cc2cc(F)ccc2[nH]1 [Compound 1qqqq]
- EGFRTK @ 10 μm [1]: 18%

Compound: OB(O)c1cccc(-c2ccccc2)c1
- inhibition at 100 µM [2, 6]: 14%

Compound: CCCOc1ccc(CNC(=O)c2cc3cc(F)ccc3[nH]2)cc1O [Compound 1nnnn]
- EGFRTK @ 10 μm [1]: 17%

Compound: O=C(NCc1cc(O)cc(OCc2ccccc2)c1)c1cc2cc(F)ccc2[nH]1 [Compound 1dddd]
- PTP-1B @ 10 μm [3]: 16%

Compound: O=S(=O)(O)Nc1ccc2ccccc2c1 [Compound 28]
- IC50 [2]: 1600 µM
- Ki [2]: 963 µM
- inhibition at 1000 µM [2]: 31%

Compound: CC[C@H](C)[C@H](NC(=O)[C@H](CB(O)O)NC(=O)CNC(=O)[C@H](CCCNC(=N)N)NC(=O)[C@H](CCCNC(=N)N)NC(C)=O)C(N)=O [Compound 21] (Ac-RRG[X1]I-NH2)
- inhibition at 100 µM [2, 7]: 54%
- inhibition at 500 µM ([4]; 500 μM inhibitor, L, 4 h preincubation): 34%
- Ki ([4]; read-out: Ki): ~9 µM
- IC50 [4, 8]: 249 µM
- % sti (stimulation) ([5]; 4 h preincubation): 19%
- % sti (stimulation) ([5]; 4 h preincubation, listed as drawing 32): *2000 μM 19% sti
- IC50 [5, 9]: 764 µM

Compound: O=C(NCc1cccc(O)c1)c1cc2cc(O)ccc2[nH]1 [Cmpd 2k]
- inhibition at 45 µM ([2]; [ATP] 200 μM): 46%
- inhibition at 45 µM ([2]; [ATP] 1,000 μM): 41%
- inhibition at 100 µM ([2]; read-out: % Inhibition at 100 μM (std. dev.), Table X, hydroxyindole derivatives): 74%

Compound: Cc1ccccc1CNC(=O)c1cc2cc(F)ccc2[nH]1 [Compound 1ffff]
- EGFRTK @ 10 μm [1]: 12%

Compound: OB(O)c1ccc2ccccc2c1 [Compound 27, 2-naphthalene boronic acid]
- IC50 [2]: 950 µM
- Ki [2]: ~554 µM and 554 µM
- inhibition at 100 µM [2, 6]: 13%
- inhibition at 1000 µM [2]: 59%

Compound: O=C(NCc1ccccc1)c1cc2cc(F)ccc2[nH]1 [Compound 1bb]
- EGFRTK @ 10 μm [1]: 19%

Compound: N=c1oc2c(O)cccc2cc1C(=O)Nc1cccc(O)c1 [Iminochromene 9TA, reference compound]
- % Inhibition at 100 μM (std. dev.) ([2]; Table IX, hydroxynaphthalene derivatives and published inhibitors): 30 (+/−15) %
- inhibition at 100 µM [2, 7]: 30%

Compound: COc1cccc([C@H](C)NC(=O)c2cc3cc(F)ccc3[nH]2)c1 [Compound 1aa]
- EGFRTK @ 10 μm [1]: 12%

Compound: O=C(Nc1cccc(O)c1)c1ccc2cc(O)ccc2c1
- inhibition at 100 µM [2, 6]: 45%

Compound: CC[C@H](C)[C@H](NC(=O)[C@@H](CB(O)O)NC(=O)CNC(=O)[C@H](CCCNC(=N)N)NC(=O)[C@H](CCCNC(=N)N)NC(C)=O)C(N)=O [Compound 22] (Ac-RRG[X2]I-NH2)
- IC50 [4, 10]: 65 µM
- IC50 [4, 8]: 81 µM
- % sti (stimulation) ([5]; 4 h preincubation): 71%
- % sti (stimulation) ([5]; 4 h preincubation, listed as drawing 33): *2000 μM 71% sti
- IC50 [5, 9]: 1750 µM

Compound: COc1ccc(CNC(=O)c2cc3cc(F)ccc3[nH]2)cc1 [Compound 1ee]
- EGFRTK @ 10 μm [1]: 16%

Compound: O=C(Nc1cccc(CO)c1)c1cc2cc(F)ccc2[nH]1 [Compound 1yyy]
- EGFRTK @ 10 μm [1]: 11%

Compound: O=C(NCc1cccc(I)c1)c1cc2cc(F)ccc2[nH]1 [Compound 1ff]
- EGFRTK @ 10 μm [1]: 24%

Compound: O=C(NCc1cc(OCc2ccccc2)cc(OCc2ccccc2)c1)c1cc2cc(F)ccc2[nH]1 [Compound 1iiii]
- EGFRTK @ 10 μm [1]: 12%

Compound: COC(=O)c1cc2cc(O)ccc2[nH]1
- inhibition at 500 µM [2]: 40%

Compound: COC(=O)c1cc2ccc(B(O)O)cc2cn1
- inhibition at 500 µM [2]: 13%

Compound: O=C(NCc1ccc(F)cc1C(F)(F)F)c1[nH]c2ccc(F)cc2c1-c1ccccc1 [Compound 2hh]
- EGFRTK @ 10 μm [1]: 12%

Compound: Ac-RRGAI-NH2 [Compound 20]
- IC50 [4, 10]: 417 µM
- Ki ([4]; read-out: Ki): ~9 µM and 9 µM
- IC50 [4, 8]: 278 µM
- Ki ([5]; Cellular Mimetic (C) conditions): 25 µM
- IC50 [5, 9]: 41 µM
- IC50 [5, 11]: 50 µM

Compound: CC[C@H](C)[C@H](NC(=O)[C@H](CCB(O)O)NC(=O)CNC(=O)[C@H](CCCNC(=N)N)NC(=O)[C@H](CCCNC(=N)N)NC(C)=O)C(N)=O [Compound 23] (Ac-RRG[X3]I-NH2)
- IC50 [4, 10]: 133 µM
- IC50 [4, 8]: 398 µM
- inhibition at 2000 µM ([5]; 0 h preincubation): 16%
- % sti (stimulation) ([5]; 4 h preincubation): 5%
- inhibition at 2000 µM ([5]; 4 h preincubation): 5%

Compound: O=C(N[C@H](c1ccccc1)[C@H](O)c1ccccc1)c1cc2cc(F)ccc2[nH]1 [Compound 1cc]
- EGFRTK @ 10 μm [1]: 19%

Compound: CC[C@H](C)[C@H](NC(=O)[C@H](CNS(=O)(=O)O)NC(=O)CNC(=O)[C@H](CCCNC(=N)N)NC(=O)[C@H](CCCNC(=N)N)NC(C)=O)C(N)=O [Compound 8] (Ac-RRG[X5]I-NH2)
- Ki ([4]; Ki): 0.16 µM

Compound: O=C(N[C@@H](c1ccccc1)[C@@H](O)c1ccccc1)c1cc2cc(F)ccc2[nH]1 [Compound 1dd]
- EGFRTK @ 10 μm [1]: 41%

Compound: COC(=O)c1cc2ccc(O)cc2cc1O
- inhibition at 100 µM [2, 6]: 47%

Compound: N=c1oc2c(O)cccc2cc1C(=O)Nc1cccc(O)c1 [Compound 50, reference compound]
- % Inhibition of 2 mM RR-src at Inhibitor Concentration (100 μM) ([2]; Table V, inhibitor 100 μM): 30 (100 μM) %
- inhibition at 100 µM [2, 6]: 30%

Compound: Oc1cc(O)cc(/C=C/c2ccc(O)c(O)c2)c1 [drawing 66, piceatannol, reference compound]
- inhibition at 100 µM ([2]; read-out: % Inhibition of 2 mM RR-src at Inhibitor Concentration (100 μM), Table V, inhibitor 100 μM): 41%

Compound: O=C(NCc1cc(Br)ccc1F)c1[nH]c2ccc(F)cc2c1-c1ccccc1 [Compound 2ll]
- EGFRTK @ 10 μm [1]: 10%

Compound: CC[C@H](C)[C@H](NC(=O)[C@H](CCCB(O)O)NC(=O)CNC(=O)[C@H](CCCNC(=N)N)NC(=O)[C@H](CCCNC(=N)N)NC(C)=O)C(N)=O (Ac-RRG[X4]I-NH2)
- inhibition at 1000 µM ([4]; L, 0 h preincubation): 33%
- inhibition at 1000 µM ([4]; L, 4 h preincubation): 44%
- % sti (stimulation) ([5]; 0 h preincubation): 2000 μM 6% sti
- IC50 [5, 11]: 1730 µM

Compound: CC[C@H](C)[C@H](NC(=O)[C@H](CCS(N)(=O)=O)NC(=O)CNC(=O)[C@H](CCCNC(=N)N)NC(=O)[C@H](CCCNC(=N)N)NC(C)=O)C(N)=O [Compound 7] (Ac-RRG[X6]I-NH2)
- Ki ([4]; read-out: Ki): 300 µM

Compound: OB(O)c1ccc(-c2ccccc2)cc1
- inhibition at 100 µM [2, 6]: 13%

Compound: Oc1cc(O)cc(/C=C/c2ccc(O)c(O)c2)c1 [Piceatannol, reference compound]
- inhibition at 100 µM ([2]; read-out: % Inhibition at 100 μM (std. dev.), Table IX, hydroxynaphthalene derivatives and published inhibitors): 41%
